In patent US11198699B2 (ALIGOS THERAPEUTICS, INC., priority 2019, dated 2021):

Columns and labels:
HepG2 hepatoma cells = assay: Cell proliferation assay, HepG2 (CellTiter-Glo, 7 days); assay type: cell-based; conditions: HepG2, 7 days, CellTiter-Glo 2.0
Description: (§1) HepG2 hepatoma cells (ATCC, HB-8065) were maintained in DMEM with high glucose (Lonza, 12-914F) supplemented with 10% fetal bovine serum (FBS; Biowest, S181B-500) and 2 mM L-glutamine (Biowest, X0551-100) at 37° C. and 5% CO2. A549 lung carcinoma cells (ATCC, CCL-185) were maintained in F-12K medium (ThermoFisher 21127030) supplemented with 10% FBS at 37° C. and 5% CO2. Exponentially growing HepG2 or A549 were plated in white, clear-bottom 96-well plates (Corning, 3903) at a cell density of 2000 (HepG2) or 350 (A549) cells per well in 199 μL of HepG2 medium. Next, 1 μL of a 5-fold 9-point dilution series of test compound in DMSO was added to the different wells. Cells were incubated at 37° C. 5% CO2 for 7 days. Cell viability was assessed on day 7 with the CellTiter-Glo 2.0 Cell Viability assay kit (Promega, G9243) to quantify the intracellular amounts of ATP: first, 100 μL of cell culture medium was removed from each well, next 100 μL of CellTiter-Glo® 2.0 Reagent was added and plates were shaken for 2 minutes on an orbital shaker. After 10 minutes stabilization at room temperature, read-out was performed on a ThermoFisher VarioSkan Lux plate reader. Counts were normalized to DMSO control (0% inhibition) and the cytotoxic control (100% inhibition) and EC50 values were determined in GraphPad Prism 8 using the [Agonist] vs. response—Variable slope (four parameters) function.
(§2) As shown by the data of Table 2, compounds of Formula (I) have activity in this assay. A value of ‘A’ in the table below indicates an EC50 of <20 nM, a value of ‘B’ indicates an EC50≥20 nM to <100 nM, a value of ‘C’ indicates an EC50 value of EC50≥100 nM to <1000 nM and a value of ‘D’ indicates an EC50≥1000 nM

[1] = tested on: A549 lung carcinoma cells; assay: Cell proliferation assay, A549 (CellTiter-Glo, 7 days); assay type: cell-based; conditions: A549, 7 days, CellTiter-Glo 2.0
Description: as §1, §2

PRMT5/MEP50 = PRMT5/MEP50 (Homo sapiens (Human), UniProt O14744); assay: PRMT5/MEP50 enzyme inhibition assay, Assay 2 (384-well, MALDI mass spectrometry, histone H4 1-21 peptide); assay type: biochemical; conditions: 1 μM SAM, 0.1 μM histone H4 1-21 peptide, 18-hour incubation at rt
PRMT5/MEP50, sequence (O14744 whole entry): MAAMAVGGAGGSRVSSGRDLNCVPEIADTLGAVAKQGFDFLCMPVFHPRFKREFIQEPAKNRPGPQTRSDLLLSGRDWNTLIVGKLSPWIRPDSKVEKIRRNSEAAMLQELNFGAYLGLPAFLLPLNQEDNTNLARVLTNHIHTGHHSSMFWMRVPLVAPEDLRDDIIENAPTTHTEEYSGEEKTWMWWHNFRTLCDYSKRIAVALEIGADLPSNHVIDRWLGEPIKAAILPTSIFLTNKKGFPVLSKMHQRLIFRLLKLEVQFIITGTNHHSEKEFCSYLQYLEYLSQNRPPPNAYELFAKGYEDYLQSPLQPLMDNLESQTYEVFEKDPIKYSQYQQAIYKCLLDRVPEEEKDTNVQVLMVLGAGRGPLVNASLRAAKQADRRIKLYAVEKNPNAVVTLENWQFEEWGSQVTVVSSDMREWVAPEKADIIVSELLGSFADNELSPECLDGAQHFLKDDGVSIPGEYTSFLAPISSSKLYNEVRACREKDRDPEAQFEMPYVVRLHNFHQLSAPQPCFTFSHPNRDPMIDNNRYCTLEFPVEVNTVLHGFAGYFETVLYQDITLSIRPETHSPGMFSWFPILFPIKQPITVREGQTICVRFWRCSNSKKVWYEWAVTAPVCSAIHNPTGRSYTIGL
PRMT5/MEP50, sequence (Q9BQA1 whole entry partner): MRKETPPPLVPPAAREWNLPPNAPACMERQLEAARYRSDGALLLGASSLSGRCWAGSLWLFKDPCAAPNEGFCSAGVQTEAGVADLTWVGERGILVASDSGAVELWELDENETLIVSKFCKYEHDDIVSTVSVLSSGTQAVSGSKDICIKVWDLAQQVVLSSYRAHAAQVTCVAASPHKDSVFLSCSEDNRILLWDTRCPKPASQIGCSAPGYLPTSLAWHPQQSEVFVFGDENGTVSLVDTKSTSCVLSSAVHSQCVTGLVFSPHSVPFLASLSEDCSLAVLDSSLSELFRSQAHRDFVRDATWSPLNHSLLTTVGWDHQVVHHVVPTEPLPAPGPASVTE
Description: Compounds were tested for inhibition of methyltransferase activity in 384-well plate assay format using mass spectrometry technology. In this enzyme inhibition assay, compounds were tested in a 11-dose IC50 mode with 3-serial dilution, in duplicate, starting at 1, 10, or 100 μM. Reactions were carried out at 1 μM SAM and 0.1 μM histone H4 1-21 peptide as substrates for methyl transfer. Following an 18-hour incubation at rt, the reaction was stopped with 0.5% formic acid. Products of the reaction were captured while unreacted substrates were washed away, prior to MALDI mass spectrometry detection and analysis. Percent enzyme activity was calculated based on no inhibitor DMSO control as 100% activity. EC50 values were determined in GraphPad Prism 8 using the [inhibitor] vs. response—Variable slope (four parameters) function.
Compounds of Formula (I) show activity in this assay. A value of ‘A’ in the table below indicates an IC50 of <1 nM, a value of ‘B’ indicates an IC50≥1 nM to ≤100 nM, and a value of ‘C’ indicates an IC50 value of >100 nM.

Row | Structure (SMILES) | EC50 (HepG2 hepatoma cells; Homo sapiens, 168 h) [nM] | EC50 ([1]; Homo sapiens, A549, 168 h) [nM] | IC50 (PRMT5/MEP50) [nM] | EC50 (HepG2 hepatoma cells) [nM] | EC50 [1] [nM]
1 | C[C@]1(CCc2ccc3ccc(N)nc3c2)C[C@@H](n2ccc3c(N)ncc(F)c32)[C@H](O)[C@@H]1O [Compound 21, (1S,2R,3S,5R)-5-(4-amino-7-fluoro-pyrrolo[3,2-c]pyridin-1-yl)-3-[2-(2-amino-7-quinolyl)ethyl]-3-methyl-cyclopentane-1,2-diol] | < 20 | < 20 | < 1 |  | 
2 | C[C@]1(CCCCc2cccc(N)n2)C[C@@H](n2ccc3c(N)ncnc32)[C@H](O)[C@@H]1O [Compound 47] | 100 to 1000 | 20 to 100 | < 1 |  | 
3 | C#C[C@]1(CCc2cc(F)c3cc(Cl)c(N)nc3c2)C[C@@H](n2ccc3c(N)ncnc32)[C@H](O)[C@@H]1O [Compound 52] | < 20 | < 20 | < 1 |  | 
4 | C[C@]1(CCc2ccc3cc(C(F)F)c(N)nc3c2)C[C@@H](n2ccc3c(N)ncnc32)[C@H](O)[C@@H]1O [Compound 23] |  |  | < 1 | < 20 | < 20
5 | C[C@]1(CCc2ccc3ccc(N)nc3c2)C[C@@H](c2cnn3c(N)ncnc23)[C@H](O)[C@@H]1O [Compound 56] | < 20 | < 20 | < 1 |  | 
6 | C[C@]1(CCc2cc(F)c3cc(Cl)c(N)nc3c2)C[C@@H](n2ccc3c(N)ncnc32)[C@H](O)[C@@H]1O [Compound 30, (1S,2R,3S,5R)-3-(2-(2-amino-3-chloro-5-fluoroquinolin-7-yl)ethyl)-5-(4-amino-7H-pyrrolo[2,3-d]pyrimidin-7-yl)-3-methylcyclopentane-1,2-diol] | < 20 | < 20 | < 1 |  | 
7 | C[C@]1(CCc2ccc3cc(Cl)c(N)nc3c2)C[C@@H](n2ccc3c(N)ncc(F)c32)[C@H](O)[C@@H]1O [Compound 49] | < 20 | < 20 | < 1 |  | 
8 | Nc1nc2cc(CC[C@@]34C[C@@H]3[C@@H](n3ccc5c(N)ncnc53)[C@H](O)[C@@H]4O)ccc2cc1Cl [Compound 19, (1R,2R,3S,4R,5S)-1-[2-(2-amino-3-chloro-7-quinolyl)ethyl]-4-(4-aminopyrrolo[2,3-d]pyrimidin-7-yl)bicyclo[3.1.0]hexane-2,3-diol] | < 20 | < 20 | < 1 |  | 
9 | CC(C)C(=O)O[C@H]1[C@H](n2ccc3c(N)ncnc32)C[C@](C)(CCc2ccc3nc(N)ccc3c2)[C@H]1OC(=O)C(C)C [Compound 26-A] |  |  | > 100 | ≥ 1000 | ≥ 1000
10 | C[C@]1(CCc2cc(F)c3cc(Cl)c(N)nc3c2)C[C@@H](n2ccc3c(N)nccc32)[C@H](O)[C@@H]1O [Compound 39, (1S,2R,3S,5R)-5-(4-amino-1H-pyrrolo[3,2-c]pyridin-1-yl)-3-(2-(2-amino-3-chloro-5-fluoroquinolin-7-yl)ethyl)-3-methylcyclopentane-1,2-diol] | 20 to 100 | 20 to 100 | < 1 |  | 
11 | Nc1nc2cc(OC[C@@H]3[C@@H](O)[C@@H](O)C4(n5ccc6c(N)ncnc65)C[C@@H]34)ccc2cc1Br (mixture of isomers) [Compound 17, rac-(2S,3R,4R,5S)-4-[(2-amino-3-bromo-7-quinolyl)oxymethyl]-1-(4-aminopyrrolo[2,3-d]pyrimidin-7-yl)bicyclo[3.1.0]hexane-2,3-diol] | ≥ 1000 | ≥ 1000 | > 100 |  | 
12 | C[C@]1(CCc2ccc3cc(Br)c(N)nc3c2)C[C@@H](n2ccc3c(N)nc(Cl)nc32)[C@H](O)[C@@H]1O [Compound 54] | < 20 | < 20 | < 1 |  | 
13 | C[C@]1(CCc2cc(F)c3cc(Cl)c(N)nc3c2)C[C@@H](n2cc(F)c3c(N)nccc32)[C@H](O)[C@@H]1O [Compound 43, (1S,2R,3S,5R)-3-(2-(2-amino-3-chloro-5-fluoroquinolin-7-yl)ethyl)-5-(4-amino-3-fluoro-1H-pyrrolo[3,2-c]pyridin-1-yl)-3-methylcyclopentane-1,2-diol] | 20 to 100 | < 20 | < 1 |  | 
14 | C[C@]1(CCc2ccc3ccc(N)nc3c2)C[C@@H](c2ccc3c(N)ncnn23)[C@H](O)[C@@H]1O [Compound 48] | < 20 | < 20 | < 1 |  | 
15 | Nc1nc2cc(OC[C@@]34C[C@@H]3[C@@H](n3ccc5c(N)ncnc53)[C@H](O)[C@@H]4O)ccc2cc1Br [Compound 15, (1R,2R,3S,4R,5S)-1-[(2-amino-3-bromo-7-quinolyl)oxymethyl]-4-(4-aminopyrrolo[2,3-d]pyrimidin-7-yl)bicyclo[3.1.0]hexane-2,3-diol] | 100 to 1000 | 100 to 1000 | < 1 |  | 
16 | C[C@]1(CCc2ccc3cc4c(nc3c2)NC(=O)CO4)C[C@@H](n2ccc3c(N)ncnc32)[C@H](O)[C@@H]1O [Compound 31, 7-(2-((1S,2R,3S,4R)-4-(4-amino-7H-pyrrolo[2,3-d]pyrimidin-7-yl)-2,3-dihydroxy-1-methylcyclopentyl)ethyl)-2H-[1,4]oxazino[3,2-b]quinolin-3(4H)-one] | 100 to 1000 | ≥ 1000 | < 1 |  | 
17 | C=C[C@]1(CCc2cc(F)c3cc(Cl)c(N)nc3c2)C[C@@H](n2ccc3c(N)ncnc32)[C@H](O)[C@@H]1O [Compound 51] | < 20 | < 20 | < 1 |  | 
18 | Cn1c(N)nc2cc(CC[C@@]3(C)C[C@@H](n4ccc5c(N)ncnc54)[C@H](O)[C@@H]3O)ccc2c1=O [Compound 29] |  |  | < 1 | < 20 | 20 to 100
19 | C[C@]1(CCc2ccc3nc(N)ccc3c2)C[C@@H](n2ccc3c(N)ncc(F)c32)[C@H](O)[C@@H]1O [Compound 21-A] | ≥ 1000 | ≥ 1000 | 1 to 100 |  | 
20 | CCCCCOC(=O)Nc1ccc2ccc(CC[C@@]3(C)C[C@@H](n4ccc5c(N)ncnc54)[C@H](O)[C@@H]3O)cc2n1 [Compound 20, pentyl N-[7-[2-[(1S,2R,3S,4R)-4-(4-aminopyrrolo[2,3-d]pyrimidin-7-yl)-2,3-dihydroxy-1-methyl-cyclopentyl]ethyl]-2-quinolyl]carbamate] | < 20 | 20 to 100 | 1 to 100 |  | 
21 | C[C@]1(CCc2ccc3cc(Cl)c(N)nc3c2)C[C@@H](n2ccc3c(N)ncnc32)[C@H](O)[C@]1(C)O [Compound 28] |  |  | < 1 | 20 to 100 | 100 to 1000
22 | Nc1ccc2ccc(CC[C@@]34CC3[C@@H](n3ccc5c(N)ncnc53)[C@H](O)[C@@H]4O)nc2n1 (stereo partly drawn) [Compound 22, (1R,2R,3S,4R)-1-[2-(7-amino-1,8-naphthyridin-2-yl)ethyl]-4-(4-aminopyrrolo[2,3-d]pyrimidin-7-yl)bicyclo[3.1.0]hexane-2,3-diol] | 100 to 1000 | 100 to 1000 | < 1 |  | 
23 | C[C@]1(CCc2ccc3cc(Cl)c(N)nc3c2)C[C@@H](n2ccc3c(N)ncnc32)[C@H](O)[C@@H]1O [Compound 18] |  |  | < 1 | < 20 | < 20
